In patent US20210052703A1 (SHANGHAI BENEMAE PHARMACEUTICAL CORPORATION, priority 2018, published 2021):

System: patients with type 2 diabetes
Assay: trial 5C: Beinaglutide with metformin, multicenter, type 2 diabetes
Type: in vivo, human
Details: control group (metformin alone group); 12 weeks of treatment
Text: Note: Covariance analysis was used for comparison between groups. The dependent variable was the change in body weight relative to baseline, and the covariate was baseline. Body weight change from baseline=post-treatment−baseline. Data from 5C test data.

Structure (SMILES): CN(C)C(=N)N=C(N)N [metformin, reference compound]
- proportion of subjects with weight loss from the baseline ≥3%: 27.27%
- proportion of subjects with weight loss ≥5%: 10.39%
